Measurements published in patent publication US20050282755A1, “Compositions having antimicrobial activity and uses thereof” (priority 2004, published 2005).
Values after ≈ are worked out from the molar mass of the structure shown. Starred links: 1 amine or outer side, 2 acyl side, 3 side chain; linkers in the order of their positions; H or OH if unused. Non-standard residues stand in square brackets, D forms with d. Residues, ends and D or L forms follow the SMILES beside them. *: point of attachment. Ethylenediamine = C(CN[*:2])N[*:1]; Lauroyl = CCCCCCCCCCCC(=O)*; Decanoyl = CCCCCCCCCC(=O)*; Octanoyl = CCCCCCCC(=O)*; Hexanoyl = CCCCCC(=O)*; Ahx = NCCCCCC(=O)O

Tests used:
[1] = tested on: Staphylococcus aureus ATCC 29213; test: MIC, NCCLS M7-A6 broth microdilution, cation-adjusted Mueller Hinton broth (Table 9, no superscript); type: cell-based; details: ATCC 29213
Experimental: (§1) Cation-adjusted Mueller Hinton broth was used in the broth microdilution method. In brief, a log-phase bacterial suspension was used to inoculate wells of a 96-well plate so that the final inoculum for each well contained 5×10^5 to 1×10^6 CFU/milliliter. […] Plates were incubated overnight at 37° C. The lowest concentration of peptide that contained no visible growth as evidenced by a lack of turbidity when compared to the control (no peptide) was determined as the MIC. Unless otherwise noted, MIC values listed in Table 9 utilized this method of MIC determination.

Salmonella dublin (Lane) = test: MIC, NCCLS M7-A6 broth microdilution (Table 9, no superscript); type: cell-based
Experimental: as §1

CC[C@H](C)[C@H](NC(=O)[C@@H](NC(=O)[C@H](CC(C)C)NC(=O)[C@H](CO)NC(=O)[C@@H](NC(=O)[C@H](CCCNC(=N)N)NC(=O)[C@H](Cc1ccc(O)cc1)NC(=O)[C@H](CC(=O)O)NC(=O)[C@H](CCCNC(=N)N)NC(C)=O)[C@@H](C)O)[C@@H](C)O)C(=O)N[C@H](C(=O)N[C@@H](CCC(N)=O)C(=O)N[C@@H](CCCCN)C(=O)NCCCCCC(=O)N[C@H](C(=O)N[C@@H](CCCNC(=N)N)C(=O)N[C@H](C(=O)N[C@@H](CO)C(=O)N[C@@H](CCCNC(=N)N)C(=O)N[C@H](C(=O)NCC(=O)N[C@@H](CCCNC(=N)N)C(=O)N[C@@H](CO)C(=O)N[C@@H](CCCNC(=N)N)C(=O)N[C@@H](Cc1c[nH]c2ccccc12)C(=O)N[C@@H](CCCNC(=N)N)C(=O)N[C@@H](CC(=O)O)C(=O)N[C@@H](Cc1c[nH]c2ccccc12)C(=O)N[C@@H](CO)C(=O)N[C@@H](CCCNC(=N)N)C(=O)N[C@@H](CC(N)=O)C(=O)N[C@@H](Cc1ccccc1)C(=O)N[C@@H](CCSC)C(=O)N[C@@H](CCCNC(=N)N)C(N)=O)[C@@H](C)O)C(C)C)[C@@H](C)O)C(C)C [Peptide 28, Ac-RDYRTSLTIVQKXTRVSRTGRSRWRDWSRNFMR-NH2 X = aminohexanoic acid] (Ac-RDYRTSLTIVQK[Ahx]TRVSRTGRSRWRDWSRNFMR-NH2)
MIC S. aureus [1]: >64 µg/mL
MIC S. dublin (Salmonella dublin (Lane)): >64 µg/mL

CCCCCCCCCCCC(=O)N[C@@H](CCCNC(=N)N)C(=O)N[C@@H](CC(=O)O)C(=O)N[C@H](C(=O)N[C@@H](C)C(=O)N[C@@H](CCCNC(=N)N)C(=O)N[C@@H](CC(N)=O)C(=O)N[C@@H](Cc1ccccc1)C(N)=O)C(C)C [Peptide 107, Lauryl-RDVARNF-NH2] (Lauroyl-RDVARNF-NH2)
MIC S. aureus [1]: >64 µg/mL
MIC S. dublin (Salmonella dublin (Lane)): >64 µg/mL

CCCCCCCCCCCC(=O)N[C@@H](CO)C(=O)N[C@@H](CCCNC(=N)N)C(=O)N[C@@H](Cc1c[nH]c2ccccc12)C(=O)N[C@@H](CCCNC(=N)N)C(=O)N[C@@H](CC(=O)O)C(=O)N[C@H](C(=O)N[C@@H](C)C(=O)N[C@@H](CCCNC(=N)N)C(=O)N[C@@H](CC(N)=O)C(=O)N[C@@H](Cc1ccccc1)C(=O)N[C@@H](CCSC)C(=O)N[C@@H](CCCNC(=N)N)C(N)=O)C(C)C [Peptide 114, Lauryl-SRWRDVARNFMR-NH2] (Lauroyl-SRWRDVARNFMR-NH2)
MIC S. aureus [1]: 4 µg/mL (≈ 2.25 µM)
MIC S. dublin (Salmonella dublin (Lane)): 4 µg/mL (≈ 2.25 µM)

CCCCCCCCCC(=O)NCCNC(=O)[C@H](CCCNC(=N)N)NC(=O)[C@H](CC(C)C)NC(=O)[C@H](Cc1ccccc1)NC(=O)[C@H](CC(N)=O)NC(=O)[C@H](CCCNC(=N)N)NC(=O)[C@H](C)NC(=O)[C@@H](NC(=O)[C@H](CC(=O)O)NC(=O)[C@H](CCCNC(=N)N)NC(=O)[C@H](Cc1c[nH]c2ccccc12)NC(=O)[C@H](CCCNC(=N)N)NC(=O)[C@H](CO)NC(=O)[C@@H](N)CCCNC(=N)N)C(C)C [Peptide 170, H2N-RSRWRDVARNFLR-Ethylamidodecanyl] (H-RSRWRDVARNFLR-{Ethylenediamine-Decanoyl}; C-terminus assumed)
MIC S. aureus [1]: 2 µg/mL (≈ 1.04 µM)
MIC S. dublin (Salmonella dublin (Lane)): 2 µg/mL (≈ 1.04 µM)

CCCCCCCCCCCC(=O)NCCNC(=O)[C@H](CCCNC(=N)N)NC(=O)[C@H](CC(C)C)NC(=O)[C@H](Cc1ccccc1)NC(=O)[C@H](CC(N)=O)NC(=O)[C@H](CCCNC(=N)N)NC(=O)[C@H](C)NC(=O)[C@@H](NC(=O)[C@H](CC(=O)O)NC(=O)[C@H](CCCNC(=N)N)NC(=O)[C@H](Cc1c[nH]c2ccccc12)NC(=O)[C@H](CCCNC(=N)N)NC(=O)[C@H](CO)NC(=O)[C@@H](N)CCCNC(=N)N)C(C)C [Peptide 171, H2N-RSRWRDVARNFLR-Ethylamidolauryl] (H-RSRWRDVARNFLR-{Ethylenediamine-Lauroyl}; C-terminus assumed)
MIC S. aureus [1]: 8 µg/mL (≈ 4.09 µM)
MIC S. dublin (Salmonella dublin (Lane)): 8 µg/mL (≈ 4.09 µM)

CCCCCC(=O)NCCCC[C@H](NC(=O)[C@H](CCCNC(=N)N)NC(=O)[C@H](CCSC)NC(=O)[C@H](Cc1ccccc1)NC(=O)[C@H](CC(N)=O)NC(=O)[C@H](CCCNC(=N)N)NC(=O)[C@H](C)NC(=O)[C@@H](NC(=O)[C@H](CC(=O)O)NC(=O)[C@H](CCCNC(=N)N)NC(=O)[C@H](Cc1c[nH]c2ccccc12)NC(=O)[C@H](CCCNC(=N)N)NC(=O)[C@H](CO)NC(=O)[C@@H](N)CCCNC(=N)N)C(C)C)C(N)=O [Peptide 183, H2N-RSRWRDVARNFMRK(Hexanyl)-NH2] (H-RSRWRDVARNFMRK(Hexanoyl)-NH2)
MIC S. aureus [1]: >64 µg/mL
MIC S. dublin (Salmonella dublin (Lane)): >64 µg/mL

CCCCCC(=O)NCCCC[C@@H](NC(=O)[C@@H](CCCNC(=N)N)NC(=O)[C@@H](CC(C)C)NC(=O)[C@@H](Cc1ccccc1)NC(=O)[C@@H](CC(N)=O)NC(=O)[C@@H](CCCNC(=N)N)NC(=O)[C@@H](C)NC(=O)[C@H](NC(=O)[C@@H](CC(=O)O)NC(=O)[C@@H](CCCNC(=N)N)NC(=O)[C@@H](Cc1c[nH]c2ccccc12)NC(=O)[C@@H](CCCNC(=N)N)NC(=O)[C@@H](CO)NC(=O)[C@H](N)CCCNC(=N)N)C(C)C)C(N)=O [Peptide 192, H2N-rsrwrdvarnflrk(Hexanyl)-NH2] (H-[dR][dS][dR][dW][dR][dD][dV][dA][dR][dN][dF][dL][dR][dK](Hexanoyl)-NH2)
MIC S. aureus [1]: >64 µg/mL
MIC S. dublin (Salmonella dublin (Lane)): >64 µg/mL

CCCCCC(=O)NCCCC[C@@H](NC(=O)[C@@H](CCCNC(=N)N)NC(=O)[C@@H](CCSC)NC(=O)[C@@H](Cc1ccccc1)NC(=O)[C@@H](CC(N)=O)NC(=O)[C@@H](CCCNC(=N)N)NC(=O)[C@@H](C)NC(=O)[C@H](NC(=O)[C@@H](CC(=O)O)NC(=O)[C@@H](CCCNC(=N)N)NC(=O)[C@@H](Cc1c[nH]c2ccccc12)NC(=O)[C@@H](CCCNC(=N)N)NC(=O)[C@@H](CO)NC(=O)[C@H](N)CCCNC(=N)N)C(C)C)C(N)=O [Peptide 197, H2N-rsrwrdvarnfmrk(Hexanyl)-NH2] (H-[dR][dS][dR][dW][dR][dD][dV][dA][dR][dN][dF][dM][dR][dK](Hexanoyl)-NH2)
MIC S. aureus [1]: >64 µg/mL
MIC S. dublin (Salmonella dublin (Lane)): >64 µg/mL

CCCCCCCC(=O)N[C@@H](CCCNC(=N)N)C(=O)N[C@@H](CO)C(=O)N[C@@H](CCCNC(=N)N)C(=O)N[C@@H](Cc1c[nH]c2ccccc12)C(=O)N[C@@H](CCCNC(=N)N)C(=O)N[C@@H](CC(=O)O)C(=O)N[C@H](C(=O)N[C@@H](C)C(=O)N[C@@H](CCCNC(=N)N)C(=O)N[C@@H](CC(N)=O)C(=O)N[C@@H](Cc1ccccc1)C(=O)N[C@@H](CCSC)C(=O)N[C@@H](CCCNC(=N)N)C(N)=O)C(C)C [Peptide 203, Octyl-RSRWRDVARNFMR-NH2] (Octanoyl-RSRWRDVARNFMR-NH2)
MIC S. aureus [1]: 32 µg/mL (≈ 17.1 µM)
MIC S. dublin (Salmonella dublin (Lane)): >64 µg/mL

CCCCCCCCCCCC(=O)NCCNC(=O)C[C@H](CCCNC(=N)N)NC(=O)C[C@H](CC(C)C)NC(=O)C[C@H](Cc1ccccc1)NC(=O)C[C@H](CCCNC(=N)N)NC(=O)C[C@H](CC(N)=O)NC(=O)C[C@@H](NC(=O)C[C@H](CCCNC(=N)N)NC(=O)C[C@H](CC(=O)O)NC(=O)C[C@@H](NC(=O)C[C@H](CCCNC(=N)N)NC(=O)C[C@H](CO)NC(=O)C[C@H](Cc1c[nH]c2ccccc12)NC(=O)C[C@@H](N)CCCNC(=N)N)[C@@H](C)CC)[C@@H](C)CC [Peptide 216, H2N-RWSRIDRINRFLR-Ethylamidolauryl all amino acids are beta3]
MIC S. aureus [1]: 8 µg/mL (≈ 3.64 µM)
MIC S. dublin (Salmonella dublin (Lane)): 16 µg/mL (≈ 7.29 µM)
